# Measurements from PMC12090182, “Repurposing of the RIPK1-Selective Benzo[1,4]oxazepin-4-one Scaffold for the Development of a Type III LIMK1/2 Inhibitor” (ACS Chemical Biology, 2025).
# Experiments:
# Test in all cases: scanMAX KINOMEscan (Eurofins)
# Assay type in all cases: binding
# [1] = biological target: ACVR2A (Homo sapiens, UniProt P27037); details: read-out: Percent Control
# Text: (§1) Supplement cb5c00097_si_002.xlsx, sheet "Table S6 (Eurofins Selectivity)" | column: Percent Control
# [2] = biological target: ANKK1 (Homo sapiens, UniProt Q8NFD2); details: 1000 nM, read-out: Percent Control
# Text: as §1
# [3] = biological target: ARK5 (Homo sapiens, UniProt O60285); details: read-out: Percent Control
# Chain of ARK5 (O60285 whole entry): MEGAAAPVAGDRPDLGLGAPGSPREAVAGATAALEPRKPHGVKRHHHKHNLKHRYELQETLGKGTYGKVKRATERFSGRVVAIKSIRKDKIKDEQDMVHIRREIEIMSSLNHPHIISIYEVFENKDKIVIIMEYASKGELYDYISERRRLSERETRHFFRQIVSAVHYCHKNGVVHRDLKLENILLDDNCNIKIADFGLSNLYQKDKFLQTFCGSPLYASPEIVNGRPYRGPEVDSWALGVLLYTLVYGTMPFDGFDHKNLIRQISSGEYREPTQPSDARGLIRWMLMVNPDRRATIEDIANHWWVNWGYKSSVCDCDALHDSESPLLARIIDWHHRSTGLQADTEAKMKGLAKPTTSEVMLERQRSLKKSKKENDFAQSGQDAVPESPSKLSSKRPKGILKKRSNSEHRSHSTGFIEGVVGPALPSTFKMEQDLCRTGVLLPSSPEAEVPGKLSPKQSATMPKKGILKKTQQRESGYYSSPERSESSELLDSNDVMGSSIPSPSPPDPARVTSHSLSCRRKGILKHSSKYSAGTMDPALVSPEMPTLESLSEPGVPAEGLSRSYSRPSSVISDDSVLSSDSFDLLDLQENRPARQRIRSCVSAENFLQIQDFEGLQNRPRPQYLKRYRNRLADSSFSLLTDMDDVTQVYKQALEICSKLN
# Text: as §1
# [4] = biological target: BMPR1A (Homo sapiens, UniProt P36894); details: 1000 nM, read-out: Percent Control
# Text: as §1
# [5] = biological target: BRSK2 (Homo sapiens, UniProt Q8IWQ3); details: read-out: Percent Control
# Text: as §1
# [6] = biological target: CDC2L5 (Homo sapiens, UniProt Q14004); details: read-out: Percent Control
# Chain of CDC2L5 (Q14004 whole entry): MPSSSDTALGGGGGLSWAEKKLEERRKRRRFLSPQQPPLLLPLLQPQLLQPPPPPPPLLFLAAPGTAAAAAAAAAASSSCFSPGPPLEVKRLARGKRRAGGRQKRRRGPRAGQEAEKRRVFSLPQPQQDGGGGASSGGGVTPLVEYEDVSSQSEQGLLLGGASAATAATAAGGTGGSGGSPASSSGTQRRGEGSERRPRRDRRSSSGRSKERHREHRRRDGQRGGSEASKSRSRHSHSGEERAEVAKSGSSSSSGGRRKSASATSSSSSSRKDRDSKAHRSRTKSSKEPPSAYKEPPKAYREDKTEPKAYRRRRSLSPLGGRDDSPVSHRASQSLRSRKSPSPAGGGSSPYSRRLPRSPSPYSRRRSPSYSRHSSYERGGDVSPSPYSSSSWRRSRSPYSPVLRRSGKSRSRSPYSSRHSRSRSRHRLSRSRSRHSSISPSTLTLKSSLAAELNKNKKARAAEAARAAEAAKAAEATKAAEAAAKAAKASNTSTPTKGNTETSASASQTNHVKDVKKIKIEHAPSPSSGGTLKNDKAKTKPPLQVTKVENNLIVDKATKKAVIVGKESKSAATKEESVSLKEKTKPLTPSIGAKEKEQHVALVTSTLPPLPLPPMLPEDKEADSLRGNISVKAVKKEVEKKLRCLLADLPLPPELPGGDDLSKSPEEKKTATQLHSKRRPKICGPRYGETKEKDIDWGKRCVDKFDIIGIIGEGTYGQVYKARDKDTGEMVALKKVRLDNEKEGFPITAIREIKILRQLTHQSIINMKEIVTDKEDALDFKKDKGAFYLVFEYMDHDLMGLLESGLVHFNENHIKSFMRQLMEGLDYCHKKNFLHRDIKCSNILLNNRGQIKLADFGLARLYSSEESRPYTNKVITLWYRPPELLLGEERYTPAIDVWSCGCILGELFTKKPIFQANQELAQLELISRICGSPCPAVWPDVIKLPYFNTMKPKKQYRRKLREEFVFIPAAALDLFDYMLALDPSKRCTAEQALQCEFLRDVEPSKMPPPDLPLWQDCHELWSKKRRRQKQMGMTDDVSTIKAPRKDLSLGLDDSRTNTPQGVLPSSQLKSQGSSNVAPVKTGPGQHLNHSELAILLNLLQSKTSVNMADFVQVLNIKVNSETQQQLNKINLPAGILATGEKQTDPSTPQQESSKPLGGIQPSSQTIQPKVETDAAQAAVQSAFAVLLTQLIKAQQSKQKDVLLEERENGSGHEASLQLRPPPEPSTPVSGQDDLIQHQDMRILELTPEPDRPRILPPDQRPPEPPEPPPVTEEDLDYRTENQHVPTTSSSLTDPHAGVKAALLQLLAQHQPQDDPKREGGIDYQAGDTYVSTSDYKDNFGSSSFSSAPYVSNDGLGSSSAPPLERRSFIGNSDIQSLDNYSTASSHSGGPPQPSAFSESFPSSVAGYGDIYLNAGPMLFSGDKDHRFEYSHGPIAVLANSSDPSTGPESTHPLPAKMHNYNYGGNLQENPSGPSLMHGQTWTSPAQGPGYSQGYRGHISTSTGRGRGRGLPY
# Text: as §1
# [7] = biological target: CDK11 (Homo sapiens, UniProt Q9BWU1); details: read-out: Percent Control
# Chain of CDK11 (Q9BWU1 whole entry): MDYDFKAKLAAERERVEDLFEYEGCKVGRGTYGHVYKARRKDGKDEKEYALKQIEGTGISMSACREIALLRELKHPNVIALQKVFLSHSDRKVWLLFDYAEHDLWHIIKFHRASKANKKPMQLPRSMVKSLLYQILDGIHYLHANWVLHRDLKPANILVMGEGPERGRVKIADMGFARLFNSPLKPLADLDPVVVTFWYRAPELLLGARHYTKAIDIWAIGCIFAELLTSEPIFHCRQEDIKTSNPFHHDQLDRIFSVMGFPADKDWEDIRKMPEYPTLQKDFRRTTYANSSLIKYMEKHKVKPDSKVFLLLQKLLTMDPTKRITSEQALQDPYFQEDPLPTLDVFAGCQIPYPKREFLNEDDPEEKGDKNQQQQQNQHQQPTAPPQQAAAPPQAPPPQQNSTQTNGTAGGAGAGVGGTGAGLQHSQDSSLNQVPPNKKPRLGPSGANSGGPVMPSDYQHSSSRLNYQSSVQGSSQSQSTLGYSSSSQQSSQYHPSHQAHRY
# Text: as §1
# [8] = biological target: CDK3 (Homo sapiens, UniProt Q00526); details: 1000 nM, read-out: Percent Control
# Text: as §1
# [9] = biological target: CDK5 (Homo sapiens, UniProt Q00535); details: read-out: Percent Control
# Chain of CDK5 (Q15078 whole entry): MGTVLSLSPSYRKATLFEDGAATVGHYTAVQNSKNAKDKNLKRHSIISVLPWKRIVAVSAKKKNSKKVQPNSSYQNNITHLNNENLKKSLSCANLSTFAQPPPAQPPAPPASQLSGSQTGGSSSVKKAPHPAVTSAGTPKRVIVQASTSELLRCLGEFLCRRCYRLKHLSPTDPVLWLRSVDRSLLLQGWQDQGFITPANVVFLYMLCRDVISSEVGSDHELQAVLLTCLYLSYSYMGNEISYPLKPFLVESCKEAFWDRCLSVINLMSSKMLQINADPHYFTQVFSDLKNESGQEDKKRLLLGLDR
# Chain of CDK5 (Q00535 whole entry): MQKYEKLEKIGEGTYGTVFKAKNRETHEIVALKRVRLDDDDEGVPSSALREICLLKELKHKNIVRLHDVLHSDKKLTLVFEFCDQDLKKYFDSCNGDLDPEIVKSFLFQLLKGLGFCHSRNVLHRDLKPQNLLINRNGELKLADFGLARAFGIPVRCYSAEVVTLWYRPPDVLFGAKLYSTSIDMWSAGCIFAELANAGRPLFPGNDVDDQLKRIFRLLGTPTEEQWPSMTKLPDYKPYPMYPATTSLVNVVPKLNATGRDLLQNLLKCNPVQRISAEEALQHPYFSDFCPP
# Text: as §1
# [10] = biological target: CDK7 (Homo sapiens, UniProt P50613); details: read-out: Percent Control
# Chain of CDK7 (P50613 whole entry): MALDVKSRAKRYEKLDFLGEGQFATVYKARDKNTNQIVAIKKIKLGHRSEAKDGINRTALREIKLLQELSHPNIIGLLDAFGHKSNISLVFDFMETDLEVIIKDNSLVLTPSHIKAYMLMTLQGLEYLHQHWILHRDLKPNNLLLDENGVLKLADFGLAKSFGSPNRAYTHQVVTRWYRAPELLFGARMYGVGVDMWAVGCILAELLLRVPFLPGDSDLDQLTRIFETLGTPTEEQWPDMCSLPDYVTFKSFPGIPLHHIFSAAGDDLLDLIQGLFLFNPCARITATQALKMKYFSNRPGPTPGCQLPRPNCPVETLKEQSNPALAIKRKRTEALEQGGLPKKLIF
# Text: as §1
# [11] = biological target: CDKL2 (Homo sapiens, UniProt Q92772); details: read-out: Percent Control
# Chain of CDKL2 (Q92772 whole entry): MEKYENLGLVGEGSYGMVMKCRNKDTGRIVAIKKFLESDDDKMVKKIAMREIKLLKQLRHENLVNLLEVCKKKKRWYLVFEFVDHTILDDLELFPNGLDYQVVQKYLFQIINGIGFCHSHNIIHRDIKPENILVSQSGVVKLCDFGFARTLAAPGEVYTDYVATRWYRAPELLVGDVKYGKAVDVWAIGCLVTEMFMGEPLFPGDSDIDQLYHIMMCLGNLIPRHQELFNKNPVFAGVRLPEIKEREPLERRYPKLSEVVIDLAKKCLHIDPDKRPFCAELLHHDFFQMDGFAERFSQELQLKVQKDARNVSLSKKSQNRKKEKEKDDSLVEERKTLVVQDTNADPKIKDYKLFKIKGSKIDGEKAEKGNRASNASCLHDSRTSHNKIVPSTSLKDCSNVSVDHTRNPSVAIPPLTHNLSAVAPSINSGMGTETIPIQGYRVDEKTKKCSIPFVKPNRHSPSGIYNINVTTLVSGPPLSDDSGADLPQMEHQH
# Text: as §1
# [12] = biological target: CDKL3 (Homo sapiens, UniProt Q8IVW4); details: read-out: Percent Control
# Text: as §1
# [13] = biological target: CSNK1E (Homo sapiens, UniProt P49674); details: read-out: Percent Control
# Chain of CSNK1E (P49674 whole entry): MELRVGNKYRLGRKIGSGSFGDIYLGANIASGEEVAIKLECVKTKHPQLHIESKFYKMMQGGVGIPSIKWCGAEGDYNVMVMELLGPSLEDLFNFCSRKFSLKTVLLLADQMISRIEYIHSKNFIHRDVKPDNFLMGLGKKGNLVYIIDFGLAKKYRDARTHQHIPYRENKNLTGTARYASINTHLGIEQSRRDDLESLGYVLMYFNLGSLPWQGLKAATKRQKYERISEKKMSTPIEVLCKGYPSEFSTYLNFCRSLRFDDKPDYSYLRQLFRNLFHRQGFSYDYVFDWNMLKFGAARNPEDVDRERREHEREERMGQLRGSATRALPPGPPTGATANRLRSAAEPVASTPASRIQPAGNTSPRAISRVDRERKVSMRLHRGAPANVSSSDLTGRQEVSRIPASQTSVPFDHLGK
# Text: as §1
# [14] = biological target: EIF2AK1 (Homo sapiens, UniProt Q9BQI3); details: 1000 nM, read-out: Percent Control
# Text: as §1
# [15] = tested on: FLT3(ITD); details: 1000 nM
# Text: as §1
# [16] = biological target: IGF1R (Homo sapiens, UniProt P08069); details: read-out: Percent Control
# Text: as §1
# [17] = biological target: ITK (Homo sapiens, UniProt Q08881); details: 1000 nM, read-out: Percent Control
# Text: as §1
# [18] = biological target: KIT (Homo sapiens, UniProt P10721); details: 1000 nM, read-out: Percent Control
# Text: as §1
# [19] = biological target: LATS1 (Homo sapiens, UniProt O95835); details: 1000 nM, read-out: Percent Control
# Text: as §1
# [20] = biological target: LOK (Homo sapiens, UniProt O94804); details: 1000 nM, read-out: Percent Control
# Text: as §1
# [21] = biological target: MAP4K3 (Homo sapiens, UniProt Q8IVH8); details: 1000 nM, read-out: Percent Control
# Text: as §1
# [22] = biological target: MRCKA (Homo sapiens, UniProt Q5VT25); details: 1000 nM, read-out: Percent Control
# Text: as §1
# [23] = biological target: MRCKB (Homo sapiens, UniProt Q9Y5S2); details: compound concentration 100 nM; Entrez CDC42BPB; read-out: Percent Control
# Text: as §1
# [24] = biological target: MST1R (Homo sapiens, UniProt Q04912); details: 1000 nM, read-out: Percent Control
# Text: as §1
# [25] = biological target: NDR1 (Homo sapiens, UniProt Q15208); details: 1000 nM, read-out: Percent Control
# Text: as §1
# [26] = biological target: NEK3 (Homo sapiens, UniProt P51956); details: 1000 nM, read-out: Percent Control
# Text: as §1
# [27] = biological target: NEK5 (Homo sapiens, UniProt Q6P3R8); details: 1000 nM, read-out: Percent Control
# Text: as §1
# [28] = biological target: PCTK1 (Homo sapiens, UniProt Q00536); details: compound concentration 100 nM; Entrez CDK16; read-out: Percent Control
# Text: as §1
# [29] = biological target: PIM2 (Homo sapiens, UniProt Q9P1W9); details: 1000 nM, read-out: Percent Control
# Text: as §1
# [30] = biological target: PKN1 (Homo sapiens, UniProt Q16512); details: read-out: Percent Control
# Text: as §1
# [31] = biological target: RIOK3 (Homo sapiens, UniProt O14730); details: 1000 nM, read-out: Percent Control
# Text: as §1
# [32] = biological target: SRPK3 (Homo sapiens, UniProt Q9UPE1); details: compound concentration 100 nM; Entrez SRPK3; read-out: Percent Control
# Text: as §1
# [33] = biological target: TBK1 (Homo sapiens, UniProt Q9UHD2); details: 1000 nM, read-out: Percent Control
# Text: as §1
# [34] = biological target: TYK2(JH1domain-catalytic) (Homo sapiens, UniProt P29597); details: 1000 nM, read-out: Percent Control
# Text: as §1
# [35] = biological target: ULK3 (Homo sapiens, UniProt Q6PHR2); details: 1000 nM, read-out: Percent Control
# Text: as §1
# [36] = biological target: VPS34 (Homo sapiens, UniProt Q8NEB9); details: compound concentration 100 nM; Entrez PIK3C3; read-out: Percent Control
# Text: as §1
# [37] = biological target: p38-alpha (Homo sapiens, UniProt Q16539); details: compound concentration 100 nM; Entrez MAPK14; read-out: Percent Control
# Text: as §1
# Chain of ACVR2A (P27037 20-513): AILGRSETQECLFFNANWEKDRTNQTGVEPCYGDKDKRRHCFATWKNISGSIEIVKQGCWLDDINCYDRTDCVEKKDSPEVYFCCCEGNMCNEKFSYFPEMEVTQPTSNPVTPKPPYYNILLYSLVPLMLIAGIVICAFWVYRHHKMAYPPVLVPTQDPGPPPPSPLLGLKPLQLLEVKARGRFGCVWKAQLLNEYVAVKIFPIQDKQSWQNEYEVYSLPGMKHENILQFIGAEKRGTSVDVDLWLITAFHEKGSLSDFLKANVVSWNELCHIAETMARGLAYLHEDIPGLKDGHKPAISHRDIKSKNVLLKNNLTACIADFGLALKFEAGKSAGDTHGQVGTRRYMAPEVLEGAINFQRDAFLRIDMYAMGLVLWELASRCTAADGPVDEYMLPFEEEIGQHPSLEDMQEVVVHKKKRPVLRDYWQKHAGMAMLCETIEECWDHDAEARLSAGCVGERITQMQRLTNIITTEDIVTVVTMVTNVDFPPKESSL
structure (smiles),measurement,setting,value
"CN1C(=O)[C@@H](N2CCc3c(nn(Cc4ccccc4)c3C(N)=O)C2=O)COc2cc(Cl)ccc21 [Compound 10, (S)-2-benzyl-6-(8-chloro-5-methyl-4-oxo-2,3,4,5-tetrahydrobenzo[b][1,4]oxazepin-3-yl)-7-oxo-4,5,6,7-tetrahydro-2H-pyrazolo[3,4-c]pyridine-3-carboxamide]",remaining binding at 1 µM,[1]; 1000 nM,100%
same,remaining binding at 0.1 µM,"[1]; compound concentration 100 nM, Entrez ACVR2A",100%
same,remaining binding at 1 µM,[2],80%
same,remaining binding at 1 µM,[3]; 1000 nM,99%
same,remaining binding at 0.1 µM,"[3]; compound concentration 100 nM, Entrez NUAK1",86%
same,remaining binding at 1 µM,[4],80%
same,remaining binding at 1 µM,[5]; 1000 nM,100%
same,remaining binding at 0.1 µM,"[5]; compound concentration 100 nM, Entrez BRSK2",85%
same,remaining binding at 1 µM,[6]; 1000 nM,100%
same,remaining binding at 0.1 µM,"[6]; compound concentration 100 nM, Entrez CDK13",100%
same,remaining binding at 1 µM,[7]; 1000 nM,100%
same,remaining binding at 0.1 µM,"[7]; compound concentration 100 nM, Entrez CDK19",100%
same,remaining binding at 1 µM,[8],87%
same,remaining binding at 1 µM,[9]; 1000 nM,99%
same,remaining binding at 0.1 µM,"[9]; compound concentration 100 nM, Entrez CDK5",78%
same,remaining binding at 1 µM,[10]; 1000 nM,99%
same,remaining binding at 0.1 µM,"[10]; compound concentration 100 nM, Entrez CDK7",72%
same,remaining binding at 1 µM,[11]; 1000 nM,100%
same,remaining binding at 0.1 µM,"[11]; compound concentration 100 nM, Entrez CDKL2",100%
same,remaining binding at 1 µM,[12]; 1000 nM,100%
same,remaining binding at 0.1 µM,"[12]; compound concentration 100 nM, Entrez CDKL3",91%
same,remaining binding at 1 µM,[13]; 1000 nM,100%
same,remaining binding at 0.1 µM,"[13]; compound concentration 100 nM, Entrez CSNK1E",91%
same,remaining binding at 1 µM,[14],94%
same,Percent Control,[15],77%
same,remaining binding at 1 µM,[16]; 1000 nM,100%
same,remaining binding at 0.1 µM,"[16]; compound concentration 100 nM, Entrez IGF1R",88%
same,remaining binding at 1 µM,[17],89%
same,remaining binding at 1 µM,[18],89%
same,remaining binding at 1 µM,[19],82%
same,remaining binding at 1 µM,[20],97%
same,remaining binding at 1 µM,[21],92%
same,remaining binding at 1 µM,[22],88%
same,remaining binding at 0.1 µM,[23],95%
same,remaining binding at 1 µM,[24],91%
same,remaining binding at 1 µM,[25],97%
same,remaining binding at 1 µM,[26],86%
same,remaining binding at 1 µM,[27],96%
same,remaining binding at 0.1 µM,[28],100%
same,remaining binding at 1 µM,[29],91%
same,remaining binding at 1 µM,[30]; 1000 nM,98%
same,remaining binding at 0.1 µM,"[30]; compound concentration 100 nM, Entrez PKN1",86%
same,remaining binding at 1 µM,[31],77%
same,remaining binding at 0.1 µM,[32],100%
same,remaining binding at 1 µM,[33],94%
same,remaining binding at 1 µM,[34],74%
same,remaining binding at 1 µM,[35],93%
same,remaining binding at 0.1 µM,[36],100%
same,remaining binding at 0.1 µM,[37],100%
